# Earlier results in the PKSmart pharmacokinetics tables (Seal et al. 2025).
# Assays:
# [1] = Lombardo et al. 2013, J Clin Pharmacol 53:178, doi 10.1177/0091270012440282; settings: for Vd / clearance: in vivo, iv; for fraction unbound: plasma
# [2] = Lombardo, Berellini, Obach 2018, Drug Metab Dispos 46:1466, doi 10.1124/dmd.118.082966; settings: human; for MRT / Vd / clearance / half-life: in vivo, iv; for fraction unbound: plasma
SMILES,Vd ([1]; monkey),clearance ([1]; monkey),MRT [2],Vd [2],clearance [2],half-life [2],Vd ([1]; dog),clearance ([1]; dog),fraction unbound ([1]; dog),fraction unbound ([1]; monkey),Vd ([1]; rat),clearance ([1]; rat),fraction unbound ([1]; rat),fraction unbound [2]
C#C[C@]1(OS(=O)(=O)O)CC[C@H]2[C@@H]3CCc4cc(O)ccc4[C@H]3CC[C@@]21C,8.7 L/kg,13 mL/min/kg,7.8 h,0.61 L/kg,1.3 mL/min/kg,9.3 h,–,–,–,–,–,–,–,–
C[C@@H](O)C1C(=O)N2C(C(=O)O)=C(COC(N)=O)S[C@H]12 (stereo partly drawn),0.14 L/kg,4.65 mL/min/kg,0.54 h,0.24 L/kg,7.55 mL/min/kg,0.54 h,0.22 L/kg,7.4 mL/min/kg,0.95,0.56,0.05 L/kg,15.5 mL/min/kg,0.5,0.72
C[C@H](Cn1cnc2c(N)ncnc21)OCP(=O)(O)O,–,16.2 mL/min/kg,3.8 h,0.83 L/kg,3.1 mL/min/kg,5.8 h,0.9 L/kg,5.9 mL/min/kg,–,–,–,–,–,0.93
COc1ccc(Cc2nccc3cc(OC)c(OC)cc23)cc1OC,–,–,1.4 h,1 L/kg,11 mL/min/kg,1.8 h,3.01 L/kg,21.8 mL/min/kg,0.1,–,–,–,0.09,–
C#C[C@]1(O)CC[C@H]2[C@@H]3CCc4cc(O)ccc4[C@H]3CC[C@@]21C,7.2 L/kg,36 mL/min/kg,11 h,4.3 L/kg,7 mL/min/kg,9.7 h,17 L/kg,25 mL/min/kg,–,0.0099,5.7 L/kg,55 mL/min/kg,0.0088,0.014
N[C@@H](CC(=O)N1CCn2c(nnc2C(F)(F)F)C1)Cc1cc(F)c(F)cc1F,–,–,7.8 h,2.8 L/kg,6 mL/min/kg,12 h,3.3 L/kg,9.1 mL/min/kg,0.556,–,8.1 L/kg,45 mL/min/kg,0.68,–
Cc1nnc2n1-c1ccc(Cl)cc1C(c1ccccc1)=NC2,–,–,18 h,0.8 L/kg,0.74 mL/min/kg,12 h,–,–,–,–,2.7 L/kg,133 mL/min/kg,0.35,–
NCc1ccccc1CC(=O)NC1C(=O)N2C(C(=O)O)=C(CSc3nnnn3CC(=O)O)CS[C@H]12 (stereo partly drawn),–,–,4.3 h,0.17 L/kg,0.66 mL/min/kg,3 h,0.5 L/kg,6.5 mL/min/kg,–,–,0.5 L/kg,5.4 mL/min/kg,–,0.19
COc1cc2nc(N3CCN(C(=O)C(C)OC)CC3)nc(N)c2cc1OC (stereo not drawn),–,–,13.7 h,0.44 L/kg,0.53 mL/min/kg,–,–,–,–,–,5.9 L/kg,44.2 mL/min/kg,–,–
COC(=O)CCc1ccc(OCC(O)CNC(C)C)cc1 (stereo not drawn),–,–,0.07 h,1.2 L/kg,290 mL/min/kg,0.15 h,3.4 L/kg,1500 mL/min/kg,0.62,–,–,–,0.71,0.59
COC(=O)C(c1ccccc1)C1CCCCN1 (stereo not drawn),–,–,4.5 h,2.2 L/kg,9.42 mL/min/kg,4.8 h,–,–,–,–,3 L/kg,53 mL/min/kg,–,0.85
COc1cccc2c1C(=O)c1c(O)c3c(c(O)c1C2=O)C[C@@](O)(C(=O)CO)C[C@@H]3O[C@H]1C[C@H](N)[C@@H](O)[C@H](C)O1,–,–,38 h,45 L/kg,20 mL/min/kg,36 h,71.9 L/kg,–,0.808,–,0.17 L/kg,25.9 mL/min/kg,–,–
CON=C(C(=O)NC1C(=O)N2C(C(=O)O)=C(CSc3nc(C)c(CC(=O)O)s3)CS[C@H]12)c1csc(N)n1 (stereo partly drawn),0.15 L/kg,1.2 mL/min/kg,1.5 h,0.054 L/kg,0.61 mL/min/kg,4.2 h,0.26 L/kg,4.1 mL/min/kg,0.243,1,0.18 L/kg,1.1 mL/min/kg,0.0097,0.18
CCc1nn(CCCN2CCN(c3cccc(Cl)c3)CC2)c(=O)n1CCOc1ccccc1,–,–,1.1 h,0.51 L/kg,7.5 mL/min/kg,1.2 h,3.24 L/kg,26 mL/min/kg,–,–,–,–,–,–
CC(=O)[C@]1(O)Cc2c(O)c3c(c(O)c2[C@@H](O[C@H]2C[C@H](N)[C@H](O)[C@H](C)O2)C1)C(=O)c1ccccc1C3=O,–,–,26 h,38 L/kg,24 mL/min/kg,16 h,34.5 L/kg,–,–,–,36.5 L/kg,78.5 mL/min/kg,–,0.076
COc1ccc(C(CN(C)C)C2(O)CCCCC2)cc1 (stereo not drawn),3.5 L/kg,41 mL/min/kg,5.2 h,4.4 L/kg,14 mL/min/kg,5 h,3.3 L/kg,13.5 mL/min/kg,0.593,0.708,6.6 L/kg,64.5 mL/min/kg,–,–
COCc1c(-c2ccc(F)cc2)c(=CC[C@@H](O)C[C@@H](O)CC(=O)O)c(C(C)C)nc1=C(C)C,–,–,1.8 h,0.33 L/kg,2.9 mL/min/kg,1.8 h,–,–,–,–,3 L/kg,27 mL/min/kg,–,–
CC1(C)S[C@@H]2C(NC(=O)C(N)c3ccccc3)C(=O)N2C1C(=O)O (stereo partly drawn),–,–,1.3 h,0.22 L/kg,2.8 mL/min/kg,1.4 h,0.58 L/kg,9.1 mL/min/kg,0.58,–,1.1 L/kg,19 mL/min/kg,0.6,–
CC(=O)CCCCn1c(=O)c2c(ncn2C)n(C)c1=O,–,–,0.77 h,1.8 L/kg,39 mL/min/kg,1.2 h,1.01 L/kg,37 mL/min/kg,0.425,–,0.1 L/kg,7.28 mL/min/kg,0.76,0.51

SMILES,Vd ([1]; monkey),clearance ([1]; monkey),MRT [2],Vd [2],clearance [2],half-life [2],Vd ([1]; dog),clearance ([1]; dog),fraction unbound ([1]; dog),fraction unbound ([1]; monkey),Vd ([1]; rat),clearance ([1]; rat),fraction unbound ([1]; rat),fraction unbound [2]
CO[C@@]1(NC(O)=c2sc(=C(C(N)=O)C(=O)O)s2)C(=O)N2C(C(=O)O)=C(CSc3nnnn3C)CS[C@@H]21,0.17 L/kg,1.7 mL/min/kg,5.2 h,0.13 L/kg,0.42 mL/min/kg,4.5 h,0.25 L/kg,4 mL/min/kg,0.6,0.13,0.25 L/kg,12.8 mL/min/kg,0.7,0.15
NCCC(O)C(=O)N[C@@H]1C[C@H](N)[C@@H](O[C@H]2O[C@H](CN)[C@@H](O)[C@H](O)[C@H]2O)[C@H](O)[C@H]1O[C@H]1O[C@H](CO)[C@@H](O)[C@H](N)[C@H]1O (stereo partly drawn),–,–,2.4 h,0.16 L/kg,1.1 mL/min/kg,2.4 h,0.2 L/kg,3.5 mL/min/kg,–,–,0.16 L/kg,5.4 mL/min/kg,–,0.88
COC(=O)C1[C@@H](OC(=O)c2ccccc2)C[C@@H]2CC[C@H]1N2C (stereo partly drawn),–,–,1 h,2 L/kg,32 mL/min/kg,0.76 h,2.6 L/kg,48.7 mL/min/kg,0.76,–,16.4 L/kg,253 mL/min/kg,0.78,0.12
Cc1cccc(C)c1NC(=O)NCCCNC(C)C,3 L/kg,26.7 mL/min/kg,5.2 h,1.4 L/kg,4.5 mL/min/kg,5 h,1.2 L/kg,13 mL/min/kg,0.7,0.69,3.2 L/kg,82 mL/min/kg,0.88,0.86
CN1CCc2cccc3c2[C@H]1Cc1ccc(O)c(O)c1-3,–,–,0.67 h,1.6 L/kg,40 mL/min/kg,–,–,–,–,–,–,–,0.1,0.05
CN1CC[C@]23c4c5ccc(O)c4OC2C(=O)CC[C@H]3[C@H]1C5 (stereo partly drawn),–,–,–,–,–,2.3 h,5.8 L/kg,71 mL/min/kg,–,–,–,–,–,–
Nc1ccc(S(=O)(=O)c2ccc(N)cc2)cc1,–,–,29 h,0.83 L/kg,–,–,–,–,–,–,1.6 L/kg,5.2 mL/min/kg,–,0.25
O=c1[nH]cc(F)c(=O)[nH]1,–,–,–,–,–,–,–,–,–,–,0.25 L/kg,33 mL/min/kg,0.69,0.64
C[C@]12CC[C@@H]3c4ccc(OC(=O)N(CCCl)CCCl)cc4CC[C@H]3[C@@H]1CC[C@@H]2OP(=O)(O)O,–,–,2.1 h,0.12 L/kg,0.94 mL/min/kg,2.4 h,0.16 L/kg,2 mL/min/kg,–,–,–,–,–,0.5
CCCC(=O)OCOC(=O)C1=C(C)NC(C)=C(C(=O)OC)C1c1cccc(Cl)c1Cl (stereo not drawn),–,–,0.07 h,0.58 L/kg,–,0.3 h,0.21 L/kg,–,–,–,0.44 L/kg,–,–,–
COC(=O)C1=C(C)NC(C)=C(C(=O)OC)C1c1ccccc1[N+](=O)[O-],–,–,–,–,–,1.9 h,1.15 L/kg,–,–,–,0.27 L/kg,–,0.035,–
NC(=O)c1ncn([C@@H]2O[C@H](CO)[C@@H](O)[C@H]2O)n1,–,3.7 mL/min/kg,45 h,–,5.2 mL/min/kg,45 h,–,–,–,0.497,–,43 mL/min/kg,–,–
CNC1(c2ccccc2Cl)CCCCC1=O (stereo not drawn),–,–,2.5 h,2.9 L/kg,19 mL/min/kg,2.8 h,2.5 L/kg,32.2 mL/min/kg,0.47,–,3.68 L/kg,115 mL/min/kg,–,0.47
CN(C)CCc1c[nH]c2ccc(CS(=O)(=O)N3CCCC3)cc12,2.61 L/kg,40 mL/min/kg,4.2 h,2.2 L/kg,8.9 mL/min/kg,3.4 h,3.98 L/kg,28.5 mL/min/kg,0.73,0.699,2.7 L/kg,55.8 mL/min/kg,0.72,0.6
CC1CC(=O)NN=C1c1ccc(NN=C(C#N)C#N)cc1 (stereo not drawn),–,–,1.1 h,0.24 L/kg,3.8 mL/min/kg,1.1 h,0.22 L/kg,3.37 mL/min/kg,–,–,–,–,–,0.02
CO[C@@]1(NC(=O)CSCC#N)C(=O)N2C(C(=O)O)=C(CSc3nnnn3C)CS[C@@H]21,0.3 L/kg,3.3 mL/min/kg,1.5 h,0.13 L/kg,1.5 mL/min/kg,1.5 h,0.9 L/kg,8 mL/min/kg,0.75,0.34,0.35 L/kg,25.3 mL/min/kg,0.55,0.15
CCOc1ccccc1OCCN[C@H](C)Cc1ccc(OC)c(S(N)(=O)=O)c1,–,–,5.6 h,0.21 L/kg,0.62 mL/min/kg,6.8 h,1.74 L/kg,19.3 mL/min/kg,0.1,–,3.25 L/kg,82.2 mL/min/kg,0.24,–
CC(C)(C)NCC(O)COc1ccc(NC(=O)NC2CCCCC2)cc1 (stereo not drawn),–,–,11 h,3.3 L/kg,4.9 mL/min/kg,11 h,–,–,–,–,4.5 L/kg,47.5 mL/min/kg,–,–
CS(=O)(=O)OCCCCOS(C)(=O)=O,–,–,3.8 h,0.55 L/kg,2.4 mL/min/kg,3.4 h,1 L/kg,19.2 mL/min/kg,–,–,0.68 L/kg,5 mL/min/kg,0.91,–
